What all share (type): biochemical
One assay addresses T1, HDAC1 (Homo sapiens, UniProt Q13547).
T1 construct: purchased Enzo Life Sciences
Kind of assay: HDAC Inhibition Screening Assay (FLUOR DE LYS Fluorimetric Drug Discovery Kit), HDAC1. The following applies: for inhibition at 2 µM: 2 μM compound; for inhibition at 10 µM: 10 μM compound; for inhibition at 50 µM: 50 μM compound. A digest of the protocol:
(§1)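 Compounds at 2 μM, 10 μM and 50 μM were each tested against HDAC1, HDAC2 and HDAC3 using a two-step fluorimetric assay. Results are given as percent of basal control after baseline subtraction.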

Another assay has as its target T2, HDAC2 (Homo sapiens, UniProt Q92769).
T2 construct: purchased Enzo Life Sciences
Kind of assay: HDAC Inhibition Screening Assay (FLUOR DE LYS Fluorimetric Drug Discovery Kit), HDAC2. The conditions noted are these: for inhibition at 2 µM: 2 μM compound; for inhibition at 10 µM: 10 μM compound; for inhibition at 50 µM: 50 μM compound. The procedure, abridged:
as §1

The target of a further assay is T3, HDAC3 (Homo sapiens, UniProt O15379).
T3 construct: purchased Enzo Life Sciences
T3 sequence (O15379 whole entry): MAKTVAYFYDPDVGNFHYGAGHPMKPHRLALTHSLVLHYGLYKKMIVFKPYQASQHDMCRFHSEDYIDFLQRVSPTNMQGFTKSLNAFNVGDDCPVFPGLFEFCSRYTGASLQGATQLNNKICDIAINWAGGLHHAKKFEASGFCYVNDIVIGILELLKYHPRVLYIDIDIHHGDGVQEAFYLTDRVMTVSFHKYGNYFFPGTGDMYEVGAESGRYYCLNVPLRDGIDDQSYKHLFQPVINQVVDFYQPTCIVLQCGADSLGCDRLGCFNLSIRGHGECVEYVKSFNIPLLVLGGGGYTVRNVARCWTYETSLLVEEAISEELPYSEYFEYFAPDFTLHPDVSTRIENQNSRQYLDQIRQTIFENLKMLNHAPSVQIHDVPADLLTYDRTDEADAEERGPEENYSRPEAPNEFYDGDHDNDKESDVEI
T3 sequence (O75376 395-489 partner limits assumed): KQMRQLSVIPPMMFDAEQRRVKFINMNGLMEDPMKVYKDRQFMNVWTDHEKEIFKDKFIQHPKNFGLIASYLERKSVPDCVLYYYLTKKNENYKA
Kind of assay: HDAC Inhibition Screening Assay (FLUOR DE LYS Fluorimetric Drug Discovery Kit), HDAC3. The following applies: for inhibition at 2 µM: 2 μM compound; for inhibition at 10 µM: 10 μM compound; for inhibition at 50 µM: 50 μM compound. A digest of the protocol: as §1

The next assay addresses T4, ATX (autotaxin) (Homo sapiens, UniProt Q13822).
T4 construct: purchased Cayman 10803
Description: Autotaxin Inhibition Screening Assay (choline release from LPC, LPC-CR). The conditions noted are these: for inhibition at 4 µM: 4 μM compound; for inhibition at 20 µM: 20 μM compound; for inhibition at 50 µM: 50 μM compound. A digest of the protocol:
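20 ng ATX incubated with 100 μM 14:0 LPC in 50 mM Tris pH 8.0, 0.01% Triton X-100, 50 mM CaCl2, with choline oxidase/HRP/2 mM HVA coupling; compounds at 4, 20 and 50 μM. HVA fluorescence (ex/em 320/450 nm) read every 60 s for 90 min; inhibition % from slopes corrected for blank versus vehicle.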

T1 sequence (Q13547 whole entry): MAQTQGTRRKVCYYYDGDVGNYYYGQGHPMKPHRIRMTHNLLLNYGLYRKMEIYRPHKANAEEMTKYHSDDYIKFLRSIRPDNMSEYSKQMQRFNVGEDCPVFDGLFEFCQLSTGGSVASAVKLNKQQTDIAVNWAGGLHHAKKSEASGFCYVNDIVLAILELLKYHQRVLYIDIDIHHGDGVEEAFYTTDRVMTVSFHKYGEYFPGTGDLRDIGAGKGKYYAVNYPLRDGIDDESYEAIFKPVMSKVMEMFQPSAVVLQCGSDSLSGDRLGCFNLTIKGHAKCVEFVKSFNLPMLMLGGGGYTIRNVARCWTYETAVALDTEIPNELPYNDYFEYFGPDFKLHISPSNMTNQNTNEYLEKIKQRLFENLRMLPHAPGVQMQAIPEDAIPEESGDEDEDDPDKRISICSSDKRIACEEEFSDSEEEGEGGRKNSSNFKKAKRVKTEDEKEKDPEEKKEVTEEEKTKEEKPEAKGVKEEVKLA
T2 sequence (Q92769 whole entry): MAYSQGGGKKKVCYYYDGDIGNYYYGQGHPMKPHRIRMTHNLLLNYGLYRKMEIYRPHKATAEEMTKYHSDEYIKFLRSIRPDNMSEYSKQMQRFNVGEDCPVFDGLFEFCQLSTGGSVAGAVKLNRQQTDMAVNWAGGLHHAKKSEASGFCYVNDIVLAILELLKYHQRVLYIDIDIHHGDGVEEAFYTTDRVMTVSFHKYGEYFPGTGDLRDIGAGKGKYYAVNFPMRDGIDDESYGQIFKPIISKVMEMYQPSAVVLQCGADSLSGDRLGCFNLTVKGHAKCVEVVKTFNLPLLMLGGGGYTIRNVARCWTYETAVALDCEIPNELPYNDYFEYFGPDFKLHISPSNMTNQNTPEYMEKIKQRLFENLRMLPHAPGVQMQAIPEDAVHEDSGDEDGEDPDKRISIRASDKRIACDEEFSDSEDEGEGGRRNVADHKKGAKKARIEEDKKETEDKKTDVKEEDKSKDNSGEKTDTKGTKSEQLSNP

Usually inhibition stands for the relative decrease from the control value, in per cent. Regarding `COc1ccc(S(=O)(=O)NC2CCc3cc(/C=C/C(=O)Nc4ccc(F)cc4N)ccc32)cc1` (stereo not drawn) [Compound 19, (E)-N-(2-amino-4-fluorophenyl)-3-(1-((4-methoxyphenyl)sulfonamido)-2,3-dihydro-1H-inden-5-yl)acrylamide], on HDAC1, the inhibition at 2 µM is less than 50%, the inhibition at 10 µM was less than 50% and the inhibition at 50 µM is less than 50%. At HDAC2, the inhibition at 2 µM was less than 50%, the inhibition at 10 µM was less than 50% and the inhibition at 50 µM was less than 50%. On HDAC3, the inhibition at 2 µM is less than 50%, the inhibition at 10 µM was less than 50% and the inhibition at 50 µM is less than 50%. On ATX (autotaxin), this compound yielded an inhibition at 4 µM of less than 50%, an inhibition at 20 µM of less than 50% and an inhibition at 50 µM of less than 50%.

Regarding `O=C(/C=C/c1ccc2c(c1)CCCC2NCCc1c[nH]c2ccccc12)NO` (stereo not drawn) [Compound 61, (E)-3-(5-((2-(1H-indol-3-yl)ethyl)amino)-5,6,7,8-tetrahydronaphthalen-2-yl)-N-hydroxy acrylamide], on HDAC1, the inhibition at 2 µM was greater than 80%, the inhibition at 10 µM is greater than 80% and the inhibition at 50 µM is greater than 80%. Besides, on HDAC2, the inhibition at 2 µM is greater than 80%, the inhibition at 10 µM is greater than 80% and the inhibition at 50 µM is greater than 80%. Also, on HDAC3, the inhibition at 2 µM is greater than 80%, the inhibition at 10 µM is greater than 80% and the inhibition at 50 µM was greater than 80%. On ATX (autotaxin), this compound gave an inhibition at 4 µM of less than 50%, an inhibition at 20 µM of less than 50% and an inhibition at 50 µM of less than 50%.

Consider `CCN(CC)c1ccc(C(=O)NC2CCc3cc(/C=C/C(=O)NCCCCCC(=O)NO)ccc32)cc1` (stereo not drawn) [Compound 30, (E)-4-(diethylamino)-N-(5-(3-((6-(hydroxyamino)-6-oxohexyl)amino)-3-oxoprop-1-en-1-yl)-2,3-dihydro-1H-inden-1-yl)benzamide], for which, on HDAC1, the inhibition at 2 µM was greater than 80%, the inhibition at 10 µM was greater than 80% and the inhibition at 50 µM was greater than 80%. For the same compound, on HDAC2, the inhibition at 2 µM is greater than 80%, the inhibition at 10 µM was greater than 80% and the inhibition at 50 µM is greater than 80%. For the same compound, at HDAC3, the inhibition at 2 µM was greater than 80%, the inhibition at 10 µM was greater than 80% and the inhibition at 50 µM is greater than 80%. In addition, at ATX (autotaxin), the inhibition at 4 µM was less than 50%, the inhibition at 20 µM was less than 50% and the inhibition at 50 µM lay within 50 to 80%.

For the compound `O=C(/C=C/c1ccc2c(c1)CCC2NCCc1cc(Cl)cc(Cl)c1)NO` (stereo not drawn) [Compound 55, (E)-3-(1-((3,5-dichlorophenethyl)amino)-2,3-dihydro-1H-inden-5-yl)-N-hydroxyacrylamide], on HDAC1, the inhibition at 2 µM was greater than 80%, the inhibition at 10 µM is greater than 80% and the inhibition at 50 µM is greater than 80%. In addition, on HDAC2, the inhibition at 2 µM was greater than 80%, the inhibition at 10 µM is greater than 80% and the inhibition at 50 µM was greater than 80%. Also, at HDAC3, the inhibition at 2 µM was greater than 80%, the inhibition at 10 µM was greater than 80% and the inhibition at 50 µM was greater than 80%. On ATX (autotaxin), the inhibition at 4 µM is less than 50%, the inhibition at 20 µM is less than 50% and the inhibition at 50 µM is less than 50%.

`Nc1cc(F)ccc1NC(=O)CCCCCNC(=O)c1ccc2c(c1)CC/C(=C\c1cc(C(F)(F)F)cc(C(F)(F)F)c1)C2=O` [Compound 78]: at HDAC1, the inhibition at 2 µM is less than 50%, the inhibition at 10 µM was less than 50% and the inhibition at 50 µM is less than 50%. Besides, at HDAC2, the inhibition at 2 µM is less than 50%, the inhibition at 10 µM was less than 50% and the inhibition at 50 µM is less than 50%. Moreover, at HDAC3, the inhibition at 2 µM is less than 50%, the inhibition at 10 µM was less than 50% and the inhibition at 50 µM is less than 50%. At ATX (autotaxin), this compound came in with an inhibition at 4 µM greater than 80%, an inhibition at 20 µM greater than 80% and an inhibition at 50 µM greater than 80%.

For the compound `O=C(CCCCCCC(=O)Nc1ccc2c(c1)CCC/C2=N\O)NO` [Compound 3, (E)-N1-hydroxy-N8-(5-(hydroxyimino)-5,6,7,8-tetrahydronaphthalen-2-yl)octanediamide], at HDAC1, the inhibition at 2 µM is greater than 80%, the inhibition at 10 µM is greater than 80% and the inhibition at 50 µM is greater than 80%. For the same compound, on HDAC2, the inhibition at 2 µM is greater than 80%, the inhibition at 10 µM is greater than 80% and the inhibition at 50 µM is greater than 80%. At HDAC3, the inhibition at 2 µM was greater than 80%, the inhibition at 10 µM was greater than 80% and the inhibition at 50 µM is greater than 80%. Moreover, at ATX (autotaxin), the inhibition at 4 µM was less than 50%, the inhibition at 20 µM is less than 50% and the inhibition at 50 µM is less than 50%.

In the case of `Nc1cc(F)ccc1NC(=O)CCCCCCC(=O)NC1CCc2cc(/C=C/C(=O)Nc3cc(Cl)cc(Cl)c3)ccc21` (stereo not drawn) [Compound 41], on HDAC1, the inhibition at 2 µM is less than 50%, the inhibition at 10 µM is less than 50% and the inhibition at 50 µM was less than 50%. Moreover, on HDAC2, the inhibition at 2 µM was less than 50%, the inhibition at 10 µM was less than 50% and the inhibition at 50 µM is less than 50%. For the same compound, at HDAC3, the inhibition at 2 µM was less than 50%, the inhibition at 10 µM was less than 50% and the inhibition at 50 µM is less than 50%. On ATX (autotaxin), this compound registered an inhibition at 4 µM of less than 50%, an inhibition at 20 µM of less than 50% and an inhibition at 50 µM of less than 50%.

Consider `Nc1ccccc1NC(=O)c1ccc(COc2ccc3c(c2)CC/C(=C\c2cc(C(F)(F)F)cc(C(F)(F)F)c2)C3=O)cc1` [Compound 66, (E)-N-(2-aminophenyl)-4-(((6-(3,5-bis(trifluoromethyl)-benzylidene)-5-oxo-5,6,7,8-tetrahydronaphthalen-2-yl)oxy)methyl)benzamide], for which, on HDAC1, the inhibition at 2 µM was less than 50%, the inhibition at 10 µM was less than 50% and the inhibition at 50 µM is less than 50%. Moreover, at HDAC2, the inhibition at 2 µM was less than 50%, the inhibition at 10 µM was less than 50% and the inhibition at 50 µM was less than 50%. For the same compound, on HDAC3, the inhibition at 2 µM was less than 50%, the inhibition at 10 µM was less than 50% and the inhibition at 50 µM was less than 50%. At ATX (autotaxin), this compound registered an inhibition at 4 µM of less than 50%, an inhibition at 20 µM of less than 50% and an inhibition at 50 µM of less than 50%.

Consider `COc1ccc2c(c1)CCC2NC(=O)CCCCCCC(=O)Nc1ccc(F)cc1N` (stereo not drawn) [Compound 43, N1-(2-amino-4-fluorophenyl)-N8-(5-methoxy-2,3-dihydro-1H-inden-1-yl)octanediamide], for which, on HDAC1, the inhibition at 2 µM is less than 50%, the inhibition at 10 µM is less than 50% and the inhibition at 50 µM is less than 50%. Besides, at HDAC2, the inhibition at 2 µM was less than 50%, the inhibition at 10 µM was less than 50% and the inhibition at 50 µM was 50 to 80%. Also, on HDAC3, the inhibition at 2 µM was less than 50%, the inhibition at 10 µM is 50 to 80% and the inhibition at 50 µM lay in the range of 50 to 80%. On ATX (autotaxin), this compound displayed an inhibition at 4 µM of less than 50%, an inhibition at 20 µM of less than 50% and an inhibition at 50 µM of less than 50%.

Turning to `Nc1cc(F)ccc1NC(=O)/C=C/c1ccc(COc2ccc3c(c2)CC/C(=C\c2cc(C(F)(F)F)cc(C(F)(F)F)c2)C3=O)cc1` [Compound 71], at HDAC1, the inhibition at 2 µM is less than 50%, the inhibition at 10 µM was less than 50% and the inhibition at 50 µM was less than 50%. Besides, on HDAC2, the inhibition at 2 µM is less than 50%, the inhibition at 10 µM was less than 50% and the inhibition at 50 µM was less than 50%. On HDAC3, the inhibition at 2 µM was less than 50%, the inhibition at 10 µM is less than 50% and the inhibition at 50 µM was less than 50%. On ATX (autotaxin), the inhibition at 4 µM is less than 50%, the inhibition at 20 µM is less than 50% and the inhibition at 50 µM was less than 50%.

For the compound `O=C(CCCCCCC(=O)Nc1ccc2c(c1)CCC(Cc1cc(C(F)(F)F)cc(C(F)(F)F)c1)C2=O)NO` (stereo not drawn) [Compound 10, N1-(6-(3,5-bis(trifluoromethyl)benzyl)-5-oxo-5,6,7,8-tetrahydronaphthalen-2-yl)-N8-hydroxyoctanediamide], at HDAC1, the inhibition at 2 µM is less than 50%, the inhibition at 10 µM is 50 to 80% and the inhibition at 50 µM is greater than 80%. In addition, on HDAC2, the inhibition at 2 µM was less than 50%, the inhibition at 10 µM was greater than 80% and the inhibition at 50 µM was greater than 80%. In addition, on HDAC3, the inhibition at 2 µM was less than 50%, the inhibition at 10 µM fell in the range of 50 to 80% and the inhibition at 50 µM is greater than 80%. At ATX (autotaxin), the inhibition at 4 µM was greater than 80%, the inhibition at 20 µM is greater than 80% and the inhibition at 50 µM was greater than 80%.

With `Nc1cc(F)ccc1NC(=O)c1ccc(COc2ccc3c(c2)CC(Cc2cc(C(F)(F)F)cc(C(F)(F)F)c2)C3=O)cc1` (stereo not drawn) [Compound 76, N-(2-amino-4-fluorophenyl)-4-(((2-(3,5-bis(trifluoromethyl)benzyl)-1-oxo-2,3-dihydro-1H-inden-5-yl)oxy)methyl)benzamide], on HDAC1, the inhibition at 2 µM was less than 50%, the inhibition at 10 µM was less than 50% and the inhibition at 50 µM was less than 50%. Besides, at HDAC2, the inhibition at 2 µM was less than 50%, the inhibition at 10 µM was less than 50% and the inhibition at 50 µM is less than 50%. For the same compound, at HDAC3, the inhibition at 2 µM is less than 50%, the inhibition at 10 µM is less than 50% and the inhibition at 50 µM is less than 50%. At ATX (autotaxin), the inhibition at 4 µM is less than 50%, the inhibition at 20 µM is less than 50% and the inhibition at 50 µM was less than 50%.
